Source: PubChem BioAssay (NCI)
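Test compounds were applied to cells in 96-well plates for 48 hours at 5 doses. TGI: total growth inhibition.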

Legend:
Test in all cases: growth of human tumour cells (NCI), 48 h
HOP-62 NSCLC = tested on: HOP-62 NSCLC
SF-539 CNS = tested on: SF-539 CNS
OVCAR-3 ovarian = tested on: OVCAR-3 ovarian
NCI-H226 lung = tested on: NCI-H226 lung
IGROV1 ovarian = tested on: IGROV1 ovarian
CAKI-1 renal = tested on: CAKI-1 renal
UACC-62 melanoma = tested on: UACC-62 melanoma
SNB-75 CNS = tested on: SNB-75 CNS
HT29 colon = tested on: HT29 colon
HCT-116 colon = tested on: HCT-116 colon
OVCAR-5 ovarian = tested on: OVCAR-5 ovarian
HCT-15 colon = tested on: HCT-15 colon
NCI-H23 lung = tested on: NCI-H23 lung
LOX IMVI melanoma = tested on: LOX IMVI melanoma
XF 498 CNS = tested on: XF 498 CNS
SNB-78 CNS = tested on: SNB-78 CNS
SK-MEL-28 melanoma = tested on: SK-MEL-28 melanoma
M19-MEL melanoma = tested on: M19-MEL melanoma
KM12 colon = tested on: KM12 colon
K-562 leukemia = tested on: K-562 leukemia
HOP-18 NSCLC = tested on: HOP-18 NSCLC
OVCAR-8 ovarian = tested on: OVCAR-8 ovarian
NCI-H460 lung = tested on: NCI-H460 lung
HL-60(TB) leukemia = tested on: HL-60(TB) leukemia
SF-295 CNS = tested on: SF-295 CNS
SK-OV-3 ovarian = tested on: SK-OV-3 ovarian
MOLT-4 leukemia = tested on: MOLT-4 leukemia
SK-MEL-5 melanoma = tested on: SK-MEL-5 melanoma
UO-31 renal = tested on: UO-31 renal
RXF 393 renal = tested on: RXF 393 renal
U251 CNS = tested on: U251 CNS
SR leukemia = tested on: SR leukemia
HCC-2998 colon = tested on: HCC-2998 colon
MALME-3M melanoma = tested on: MALME-3M melanoma
A498 renal = tested on: A498 renal
DLD-1 colon = tested on: DLD-1 colon
DMS 273 small cell lung = tested on: DMS 273 small cell lung
SW-620 colon = tested on: SW-620 colon
NCI-H522 lung = tested on: NCI-H522 lung
UACC-257 melanoma = tested on: UACC-257 melanoma
M14 melanoma = tested on: M14 melanoma
LXFL 529 NSCLC = tested on: LXFL 529 NSCLC
KM20L2 colon = tested on: KM20L2 colon
RPMI-8226 leukemia = tested on: RPMI-8226 leukemia
COLO 205 colon = tested on: COLO 205 colon
ACHN renal = tested on: ACHN renal
A549 NSCLC = tested on: A549 NSCLC
SNB-19 CNS = tested on: SNB-19 CNS
EKVX NSCLC = tested on: EKVX NSCLC
SN12C renal = tested on: SN12C renal
OVCAR-4 ovarian = tested on: OVCAR-4 ovarian
HOP-92 NSCLC = tested on: HOP-92 NSCLC
SF-268 CNS = tested on: SF-268 CNS
786-0 renal = tested on: 786-0 renal
CCRF-CEM leukemia = tested on: CCRF-CEM leukemia
TK-10 renal = tested on: TK-10 renal
DMS 114 small cell lung = tested on: DMS 114 small cell lung
SK-MEL-2 melanoma = tested on: SK-MEL-2 melanoma

`CC(C)C(=O)N1C(=O)O[C@@H](c2ccccc2)[C@H]1C` was tested. Which TGI (HOP-62 NSCLC) did it give?
The TGI was over 100 µM.

And the TGI (SF-539 CNS)?
The TGI was over 100 µM.

What about the TGI (OVCAR-3 ovarian) of the same compound?
Its TGI is over 100 µM.

What about the TGI (NCI-H226 lung) of the same compound?
The TGI was over 100 µM.

What about the TGI (IGROV1 ovarian) of the same compound?
The TGI was over 100 µM.

And the TGI (CAKI-1 renal)?
The TGI was 97.9 µM.

And the TGI (UACC-62 melanoma)?
Its TGI is over 100 µM.

What about the TGI (SNB-75 CNS) of the same compound?
The TGI was over 100 µM.

And the TGI (HT29 colon)?
Its TGI is over 100 µM.

What about the TGI (HCT-116 colon) of the same compound?
The TGI was over 100 µM.

And the TGI (OVCAR-5 ovarian)?
Its TGI is over 100 µM.

What about the TGI (HCT-15 colon) of the same compound?
The TGI was over 100 µM.

And the TGI (NCI-H23 lung)?
The TGI was over 100 µM.

What about the TGI (LOX IMVI melanoma) of the same compound?
The TGI was over 100 µM.

And the TGI (XF 498 CNS)?
The TGI was over 100 µM.

And the TGI (SNB-78 CNS)?
The TGI was over 100 µM.

What about the TGI (SK-MEL-28 melanoma) of the same compound?
Its TGI is over 100 µM.

What about the TGI (M19-MEL melanoma) of the same compound?
Its TGI is over 100 µM.

And the TGI (KM12 colon)?
Its TGI is over 100 µM.

And the TGI (K-562 leukemia)?
The TGI was over 100 µM.

What about the TGI (HOP-18 NSCLC) of the same compound?
Its TGI is over 100 µM.

And the TGI (OVCAR-8 ovarian)?
Its TGI is over 100 µM.

What about the TGI (NCI-H460 lung) of the same compound?
Its TGI is over 100 µM.

And the TGI (HL-60(TB) leukemia)?
The TGI was over 100 µM.

And the TGI (SF-295 CNS)?
Its TGI is over 100 µM.

What about the TGI (SK-OV-3 ovarian) of the same compound?
The TGI was over 100 µM.

And the TGI (MOLT-4 leukemia)?
The TGI was over 100 µM.

And the TGI (SK-MEL-5 melanoma)?
Its TGI is over 100 µM.

What about the TGI (UO-31 renal) of the same compound?
The TGI was over 100 µM.

What about the TGI (RXF 393 renal) of the same compound?
The TGI was over 100 µM.

And the TGI (U251 CNS)?
Its TGI is over 100 µM.

And the TGI (SR leukemia)?
The TGI was over 100 µM.

What about the TGI (HCC-2998 colon) of the same compound?
The TGI was over 100 µM.

What about the TGI (MALME-3M melanoma) of the same compound?
The TGI was over 100 µM.

And the TGI (A498 renal)?
The TGI was over 100 µM.

What about the TGI (DLD-1 colon) of the same compound?
Its TGI is over 100 µM.

What about the TGI (DMS 273 small cell lung) of the same compound?
The TGI was over 100 µM.

And the TGI (SW-620 colon)?
The TGI was over 100 µM.

And the TGI (NCI-H522 lung)?
The TGI was over 100 µM.

What about the TGI (UACC-257 melanoma) of the same compound?
The TGI was over 100 µM.

What about the TGI (M14 melanoma) of the same compound?
Its TGI is over 100 µM.

And the TGI (LXFL 529 NSCLC)?
The TGI was over 100 µM.

What about the TGI (KM20L2 colon) of the same compound?
The TGI was over 100 µM.

And the TGI (RPMI-8226 leukemia)?
Its TGI is over 100 µM.

What about the TGI (COLO 205 colon) of the same compound?
Its TGI is over 100 µM.

What about the TGI (ACHN renal) of the same compound?
Its TGI is over 100 µM.

And the TGI (A549 NSCLC)?
The TGI was over 100 µM.

And the TGI (SNB-19 CNS)?
The TGI was over 64.7 µM.

What about the TGI (EKVX NSCLC) of the same compound?
The TGI was over 100 µM.

And the TGI (SN12C renal)?
Its TGI is over 100 µM.

What about the TGI (OVCAR-4 ovarian) of the same compound?
Its TGI is over 100 µM.

And the TGI (HOP-92 NSCLC)?
The TGI was over 100 µM.

What about the TGI (SF-268 CNS) of the same compound?
The TGI was over 100 µM.

And the TGI (786-0 renal)?
The TGI was over 100 µM.

What about the TGI (CCRF-CEM leukemia) of the same compound?
Its TGI is over 100 µM.

And the TGI (TK-10 renal)?
The TGI was over 100 µM.

And the TGI (DMS 114 small cell lung)?
Its TGI is over 100 µM.

What about the TGI (SK-MEL-2 melanoma) of the same compound?
The TGI was over 100 µM.
